Laboratory results reported in PubChem BioAssay AID1919017 (Molecular Pharmacology Branch, DTP, NCI, 2023).
Several values for one entry are separate records, joined by “and”; a condition that tells them apart may be missing. Identical values can stand only once.

System: SW1271 complex spheroids with HUVEC/MSC, growth, % test/control
Test: Anticancer human tumor SW1271 cell line growth inhibition [AhR];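 note: spheroids exposed to agents for 7 days before readout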
Settings: for viability, T/C: stronger effect = lower value
Description: Multicellular complex tumor spheroid response to aryl hydrocarbon receptor antagonists in combination with a variety of drugs and investigational agents in selected tumor cell lines
The current study was undertaken to assess response to aryl hydrocarbon receptor antagonists in combination with standard-of-care drugs and investigational agents in solid tumor complex spheroid models. Complex spheroids include a stromal component modeled by human endothelial cells (HUVEC) and fibroblasts modeled by human mesenchymal stem cells (MSCs). The concentration ranges selected for each drug and investigational agent were based upon clinically achievable concentrations if the clinical Cmax of the agent was known.
Compounds. The drugs and investigational agents: BAY 2416964 (NSC825713), GNF351 (NSC835774), CH-223191 (NSC835775), CPI-455 (NSC825282), aza-TdCyd (NSC777586), decitabine (NSC127716), belinostat (NSC758774), entinostat (NSC756642), pevonedistat (NSC761192), tazemetostat (NSC777109), talazoparib (NSC765396), olaparib (NSC753686), selinexor (NSC780203), nedisertib (M3814, NSC802822), bortezomib (NSC756655), venetoclax (NSC766270), doxorubicin (NSC123127), elimusertib (BAY189344, NSC800525), ceralasertib (AZD6738, NSC777638), TAK-243 (NSC785004), alisertib (NSC759677), etoposide (NSC141540), topotecan (NSC609699), eribulin (NSC707389), gemcitabine (NSC613327), carboplatin (NSC241240), cisplatin (NSC119875), and SN-38 (NSC673596) were obtained from the National Cancer Institute (NCI) Developmental Therapeutics Program Chemical Repository (32). The FDA-approved anticancer drug set is available from the Developmental Therapeutics Program at https://dtp.cancer.gov/organization/dscb/obtaining/available plates.htm. […] The stock solutions were prepared in dimethyl sulfoxide (DMSO, Sigma-Aldrich, St. Louis, MO, cat. D2650), except for the platinum compounds which were prepared in saline (Quality Biological, Gaithersburg, MD, cat. 114-055-101), at 800-fold the tested concentration and stored at -70 degrees C prior to their use. All drugs and investigational agents were tested over a range starting from a high concentration at or near the clinical Cmax and decreasing in half-log increments. If the clinical Cmax for an agent had not been determined, the highest concentration tested was 10 microM (Table 1).
Cell Culture. All cells were maintained in an incubator at 37 degrees C and 5% CO2 with 95% humidity. The PDC lines were cultured according to standard operating procedures established by the NCI PDMR (https://pdmr.cancer.gov). Briefly, all PDCs were thawed and cultured in Matrigel-coated flasks prepared with a working solution of 1X Ham's F-12 nutrient mix, without supplementation (Invitrogen, Waltham, MA, cat. 11765054), 100 U/mL penicillin-streptomycin (Invitrogen, cat. 15140122), and 2.5% Matrigel (Corning Inc., Corning, NY, cat. 354248) for the first three passages. All PDCs were cultured in complete DMEM/F-12 media containing advanced DMEM/F-12 (Invitrogen, cat. 12634028), 4.9% defined fetal bovine serum, heat inactivated (HyClone Laboratories Inc., Logan, UT, cat. SH30070.03HI), 389 ng/mL hydrocortisone (Sigma-Aldrich, cat. H4001), 9.7 ng/mL human EGF recombinant protein (Invitrogen, cat. PHG0313), 23.4 microg/mL adenine (Sigma-Aldrich, cat. A2786), 97.3 U/mL penicillin-streptomycin (Invitrogen, cat. 15140122), 1.9 mM L-glutamine (Invitrogen, cat. 25030081), and 9.7 microM Y-27632 dihydrochloride (Tocris Bioscience, Bristol, United Kingdom, cat. 1254). The PDCs were cultured in complete DMEM/F12 media without 10 microM Y-27632 dihydrochloride for at least two passages prior to the screen. The established cell lines NCI-H1341 and […] were cultured in DMEM/F-12, HEPES (Invitrogen, cat. 11330032), 5% defined fetal bovine serum (HyClone Laboratories Inc., cat. SH30070.03), ITS premix universal culture supplement [insulin (5 microg/mL), transferrin (5 microg/mL), and selenious acid (5 ng/mL)] […]

Structure (SMILES)	viability, T/C (compound 0.0316 µM)	viability, T/C (compound 0.1 µM)	viability, T/C (compound 0.316 µM)	viability, T/C (compound 1 µM)	viability, T/C (compound 3.16 µM)	viability, T/C (compound 10 µM)	IC50 (curve of compound)	also measured
COc1ccc([C@@H](O)c2cc(-c3ncnc4cc(N5CCOCC5)ccc34)c(F)cc2Cl)nn1	80.5% and 93.2% and 107%	96.4% and 73% and 85.2%	76.1% and 70.2% and 81%	62.3% and 61.5% and 59.7%	45.4% and 57% and 39.5%	25.2% and 27.9% and 28.6%	2.18 µM and 2.74 µM and 1.89 µM	–
COc1cccc2c1C(=O)c1c(O)c3c(c(O)c1C2=O)CC(O)(C(=O)CO)CC3OC1CC(N)C(O)C(C)O1 (configuration not stated)	66.6% and 50.3% and 72.6%	69.8% and 46.8% and 56.1%	53% and 29.6% and 40.6%	7.45% and 5.09% and 6.04%	4.63% and 2.92% and 2.03%	13.6% and 3.38% and 3.85%	–	–
Cc1ccccc1N=Nc1ccc(NC(=O)c2ccnn2C)c(C)c1	–	–	–	–	–	–	–	IC50 (compound alone, run of 08/22/2022): > 10 µM
Cc1cncc(-c2nc(NCCc3c[nH]c4ccccc34)c3ncn(C(C)C)c3n2)c1	–	–	–	–	–	46.3% [middle of 20 runs]	–	–
Cn1ncnc1C1c2n[nH]c(=O)c3cc(F)cc(c23)NC1c1ccc(F)cc1 (configuration not stated)	89.5% and 112% and 96.6%	88.7% and 93.8% and 83.6%	–	–	–	–	> 0.1 µM	viability, T/C (compound 0.000316 µM): 114% and 102% and 95.2%; viability, T/C (compound 0.001 µM): 97.2% and 109% and 100%; viability, T/C (compound 0.00316 µM): 101% and 95.9% and 94%; viability, T/C (compound 0.01 µM): 106% and 105% (2×)
NS(=O)(=O)OCC1CC(n2ccc3c(NC4CCc5ccccc54)ncnc32)CC1O (configuration not stated)	151% and 137% and 133%	143% and 152% and 145%	120% and 101% and 89.3%	99.3% and 103% and 71.7%	88.6% and 93.6% and 57.3%	77% and 86.9% and 55.2%	> 10 µM and 8.7 µM	–
Nc1ccccc1NC(=O)c1ccc(CNC(=O)OCc2cccnc2)cc1	107% and 114% and 87.5%	112% and 89.2% and 77%	72.5% and 61% and 59.9%	62.2% and 60.4% and 45.5%	37.6% and 38.3% and 33.3%	10.4% and 14.2% and 7.86%	1.62 µM and 1.18 µM and 0.765 µM	–
Nc1ccn(C2OC(CO)C(O)C2(F)F)c(=O)n1 (configuration not stated)	75.2% and 49% and 67.7%	65.6% and 48.5% and 66.2%	69.9% and 41.9% and 48.2%	57.6% and 44.3% and 50%	57.8% and 50.9% and 56.9%	64.4% and 44.9% and 47.5%	–	–
Nc1ncn(C2CC(O)C(CO)O2)c(=O)n1 (configuration not stated)	95.4% and 81.6% and 69.9%	86.8% and 94.5% and 63.9%	93.2% and 73.9% and 68.4%	101% and 80.6% and 66.2%	–	–	> 1 µM	viability, T/C (compound 0.00316 µM): 97.1% and 72.6% and 93.8%; viability, T/C (compound 0.01 µM): 107% and 124% and 97%
Nc1ncn(C2CC(O)C(CO)S2)c(=O)n1 (configuration not stated)	–	–	–	–	–	–	> 0.3 µM	viability, T/C (compound 0.000949 µM): 87.6% and 102% and 94.9%; viability, T/C (compound 0.003 µM): 97.8% and 95.9% and 114%; viability, T/C (compound 0.00949 µM): 85.7% and 82.9% and 113%; viability, T/C (compound 0.03 µM): 94.8% and 90.3% and 103%; viability, T/C (compound 0.0949 µM): 89.2% and 85.8% and 94.6%; viability, T/C (compound 0.3 µM): 78.8% and 82.7% and 78.6%
O=C(C=Cc1cccc(S(=O)(=O)Nc2ccccc2)c1)NO	103% and 83.5% and 85.7%	93.6% and 105% and 72.1%	84.1% and 62.7% and 54.9%	62.3% and 55.8% and 46.2%	31.1% and 22.6% and 23.3%	13.2% and 16.8% and 9.23%	1.55 µM and 0.963 µM and 0.556 µM	–
O=C(C=Cn1cnc(-c2cc(C(F)(F)F)cc(C(F)(F)F)c2)n1)NNc1cnccn1	–	–	–	–	–	–	1.66 µM and 1.43 µM and 0.701 µM	viability, T/C (compound 0.00949 µM): 95.2% and 89.5% and 105%; viability, T/C (compound 0.03 µM): 92.7% and 78.8% and 61.8%; viability, T/C (compound 0.0949 µM): 79.7% and 88.9% and 77.8%; viability, T/C (compound 0.3 µM): 78.9% and 65.1% and 64.9%; viability, T/C (compound 0.949 µM): 55% and 57% and 44.6%; viability, T/C (compound 3 µM): 42.1% and 41.2% and 35.7%
O=C(c1cc(Cc2n[nH]c(=O)c3ccccc23)ccc1F)N1CCN(C(=O)C2CC2)CC1	93% and 99.8% (2×)	101% and 109% and 92.5%	90.8% and 96.5% and 82.1%	84.3% and 88.2% and 89.1%	80.5% and 98.7% and 74.1%	66% and 77.4% and 76.5%	> 10 µM	–
